Measured values: US10696707B2, “Polyene macrolide derivative” (Shionogi & Co., Ltd., priority 2014, dated 2020)
Converted amounts (≈) assume the structure as drawn. Where two headings read alike, the source gives them in different places.

Key:
Type in all cases: cell-based
[1] = system: red blood cells (5% RBC suspension); assay: Test Example 2-2: in vitro hemolytic activity test (upper limit 200 μmol/L); conditions: Test Example 2-2, hemolysis method 200 (upper concentration 200 μmol/L), 5% RBC suspension, 37° C., one hour, read-out: hemolysis IC50
Experimental: Nephrotoxic potentials of the compounds of the present invention whose X is —N(R^F)—CO—X^1 and X^1 is the group represented by formula (III) and T is —N(R^a5)— were investigated by in vitro hemolytic activity test under the condition that the upper limit was 200 μmol/L as the required concentration to 50% of hemolysis (IC50).
Defibrinated sterile blood was centrifuged at 700×g for 3 minutes and, and the supernatant was removed for 100% of red blood cells. After the cleaning with physiological saline, the washed blood cells was suspended in the medium (Earle's balanced salt sodium, bicarbonate, 0.1 g/L L-glutamine without phenol red), and was diluted by 5% (5% RBC suspension).
The washed blood was diluted by 5% in water for injection (solution of complete hemolysis), and was used as the indication of optical density for complete hemolysis.
The compounds of the present invention solution in DMSO (several and doubling dilutions starting from 10 mmol/L), DMSO as the negative control, and Amphotericin B as the positive control were used, and each 5 μL of these was added in to a well of V-form 96 well type microplate. Finally, the maximum concentration of the compounds of the present invention solution in DMSO was 200 μmol/L by adding 245 μL of the medium or 5% RBC suspension into the well.
Two hundred fifty μL of the solution of complete hemolysis was added into another well and the microplate was incubated at 37° C. in 5% of CO2 concentration for an hour.
After the incubation, each 100 μL of supernatants in wells was collected by centrifugation of the microplate at 300×g for 5 minutes and was located on a well of flat-form 96 well type microplate. An absorbance of each supernatant was measured at wavelength of 540 nm.
Percent hemolysis was calculated by using the followed equation. The required concentration to 50% of hemolysis (IC50) was calculated based on the percent hemolysis. […] Hemolysis (%)=(CR−VM)×100÷(VL−VR) Where:
CR: Absorbance of 5% RBC suspension incubated with the compounds of the present invention solution in DMSO
VM: Absorbance of medium incubated with the compounds of the present invention solution in DMSO
VL: Absorbance of solution of complete hemolysis
VR: Absorbance of 5% RBC suspension incubated with DMSO
The “>200” in the table means above IC50 value exceeded the upper concentration 200 μmol/L.

[2] = system: C. albicans ATCC90028; assay: Antifungal activity test, MIC by broth microdilution (CLSI M27-A3); conditions: C. albicans ATCC90028, broth microdilution, 35° C., 24-48 hours, 100% inhibition
Summary of the method: (§1)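 CLSI broth microdilution in RPMI 1640 with 2% glucose, 0.165 mol/L MOPS, pH 7.0; two-fold DMSO dilutions. MIC = lowest concentration giving 100% inhibition versus growth control.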

[3] = system: A. flavus ATCC204304; assay: Antifungal activity test, MIC by broth microdilution (CLSI M38-A2); conditions: A. flavus ATCC204304, broth microdilution, 35° C., 24-48 hours, 100% inhibition
Summary of the method: as §1

[4] = system: A. fumigatus ATCC204305; assay: as above; conditions: A. fumigatus ATCC204305, broth microdilution, 35° C., 24-48 hours, 100% inhibition
Summary of the method: as §1

[5] = Candida albicans, read-out: MIC
[6] = Aspergillus flavus, read-out: MIC
[7] = Aspergillus fumigatus, read-out: MIC

MIC [2] [µg/mL] | MIC [3] [µg/mL] | MIC [4] [µg/mL] | SMILES | IC50 [1] [µM] | further results
– | – | – | C[C@@H]1[C@H](O)[C@@H](C)/C=C/C=C/C=C/C=C/C=C/C=C/C=C/[C@H](O[C@@H]2O[C@H](C)[C@@H](O)[C@H](N)[C@@H]2O)C[C@@H]2O[C@](O)(C[C@@H](O)C[C@@H](O)[C@H](O)CC[C@@H](O)C[C@@H](O)CC(=O)O[C@H]1C)C[C@H](O)[C@H]2NC(=O)NNC(CO)CO [I-272] | – | IC50 ([1]; Erythrocyte, 1 h): > 200 µM; MIC [2, 5]: 0.25 µg/mL (≈ 0.243 µM); MIC [3, 6]: 0.5 µg/mL (≈ 0.487 µM); MIC [4, 7]: 0.5 µg/mL (≈ 0.487 µM)
0.25 (≈ 0.255 µM) | 1 (≈ 1.02 µM) | 1 (≈ 1.02 µM) | C[C@@H]1[C@H](O)[C@@H](C)/C=C/C=C/C=C/C=C/C=C/C=C/C=C/[C@H](O[C@@H]2O[C@H](C)[C@@H](O)[C@H](N)[C@@H]2O)C[C@@H]2O[C@](O)(C[C@@H](O)C[C@@H](O)[C@H](O)CC[C@@H](O)C[C@@H](O)CC(=O)O[C@H]1C)C[C@H](O)[C@H]2NC(=O)NNC=O [I-43] | > 200 | –
0.5 (≈ 0.475 µM) | 0.5 (≈ 0.475 µM) | 1 (≈ 0.949 µM) | C[C@@H]1[C@H](O)[C@@H](C)/C=C/C=C/C=C/C=C/C=C/C=C/C=C/[C@H](O[C@@H]2O[C@H](C)[C@@H](O)[C@H](N)[C@@H]2O)C[C@@H]2O[C@](O)(C[C@@H](O)C[C@@H](O)[C@H](O)CC[C@@H](O)C[C@@H](O)CC(=O)O[C@H]1C)C[C@H](O)[C@H]2NC(=O)NNC(=O)CCC(=O)O [I-261] | > 200 | –
– | – | – | CC(=O)NNC(=O)N[C@H]1[C@@H]2C[C@@H](O[C@@H]3O[C@H](C)[C@@H](O)[C@H](N)[C@@H]3O)/C=C/C=C/C=C/C=C/C=C/C=C/C=C/[C@H](C)[C@@H](O)[C@@H](C)[C@H](C)OC(=O)C[C@H](O)C[C@H](O)CC[C@@H](O)[C@H](O)C[C@H](O)C[C@](O)(C[C@@H]1O)O2 [I-19] | – | IC50 ([1]; Erythrocyte, 1 h): > 200 µM; MIC [2, 5]: 0.25 µg/mL (≈ 0.251 µM); MIC [3, 6]: 1 µg/mL (≈ 1 µM); MIC [4, 7]: 1 µg/mL (≈ 1 µM)
0.25 (≈ 0.236 µM) | 0.5 (≈ 0.472 µM) | 1 (≈ 0.945 µM) | C[C@@H]1[C@H](O)[C@@H](C)/C=C/C=C/C=C/C=C/C=C/C=C/C=C/[C@H](O[C@@H]2O[C@H](C)[C@@H](O)[C@H](N)[C@@H]2O)C[C@@H]2O[C@](O)(C[C@@H](O)C[C@@H](O)[C@H](O)CC[C@@H](O)C[C@@H](O)CC(=O)O[C@H]1C)C[C@H](O)[C@H]2NC(=O)NNC(=O)c1cccnc1 [I-45] | > 200 | –
0.5 (≈ 0.474 µM) | 0.5 (≈ 0.474 µM) | 1 (≈ 0.948 µM) | C[C@@H]1[C@H](O)[C@@H](C)/C=C/C=C/C=C/C=C/C=C/C=C/C=C/[C@H](O[C@@H]2O[C@H](C)[C@@H](O)[C@H](N)[C@@H]2O)C[C@@H]2O[C@](O)(C[C@@H](O)C[C@@H](O)[C@H](O)CC[C@@H](O)C[C@@H](O)CC(=O)O[C@H]1C)C[C@H](O)[C@H]2NC(=O)NNC(=O)C[C@H](O)CO [I-237] | > 200 | –
0.25 (≈ 0.247 µM) | 0.5 (≈ 0.494 µM) | 1 (≈ 0.988 µM) | C[C@@H]1[C@H](O)[C@@H](C)/C=C/C=C/C=C/C=C/C=C/C=C/C=C/[C@H](O[C@@H]2O[C@H](C)[C@@H](O)[C@H](N)[C@@H]2O)C[C@@H]2O[C@](O)(C[C@@H](O)C[C@@H](O)[C@H](O)CC[C@@H](O)C[C@@H](O)CC(=O)O[C@H]1C)C[C@H](O)[C@H]2NC(=O)NNC(=O)NO [I-218] | > 200 | –
– | – | – | C[C@@H]1[C@H](O)[C@@H](C)/C=C/C=C/C=C/C=C/C=C/C=C/C=C/[C@H](O[C@@H]2O[C@H](C)[C@@H](O)[C@H](N)[C@@H]2O)C[C@@H]2O[C@](O)(C[C@@H](O)C[C@@H](O)[C@H](O)CC[C@@H](O)C[C@@H](O)CC(=O)O[C@H]1C)C[C@H](O)[C@H]2NC(=O)NNC(=O)NCC(O)CCl (stereo partly shown) [I-229] | > 200 | –
– | – | – | C[C@@H]1[C@H](O)[C@@H](C)/C=C/C=C/C=C/C=C/C=C/C=C/C=C/[C@H](O[C@@H]2O[C@H](C)[C@@H](O)[C@H](N)[C@@H]2O)C[C@@H]2O[C@](O)(C[C@@H](O)C[C@@H](O)[C@H](O)CC[C@@H](O)C[C@@H](O)CC(=O)O[C@H]1C)C[C@H](O)[C@H]2NC(=O)NNC(=O)C(C)(C)CO [I-232] | > 200 | –
– | – | – | C[C@@H]1[C@H](O)[C@@H](C)/C=C/C=C/C=C/C=C/C=C/C=C/C=C/[C@H](O[C@@H]2O[C@H](C)[C@@H](O)[C@H](N)[C@@H]2O)C[C@@H]2O[C@](O)(C[C@@H](O)C[C@@H](O)[C@H](O)CC[C@@H](O)C[C@@H](O)CC(=O)O[C@H]1C)C[C@H](O)[C@H]2NC(=O)NNC(=O)c1ccc(N2CCOCC2)nc1 [I-194] | > 200 | –
– | – | – | C[C@@H]1[C@H](O)[C@@H](C)/C=C/C=C/C=C/C=C/C=C/C=C/C=C/[C@H](O[C@@H]2O[C@H](C)[C@@H](O)[C@H](N)[C@@H]2O)C[C@@H]2O[C@](O)(C[C@@H](O)C[C@@H](O)[C@H](O)CC[C@@H](O)C[C@@H](O)CC(=O)O[C@H]1C)C[C@H](O)[C@H]2NC(=O)NNC[C@@H](O)C(=O)O [I-310] | – | IC50 ([1]; Erythrocyte, 1 h): > 200 µM; MIC [2, 5]: 0.5 µg/mL (≈ 0.48 µM); MIC [3, 6]: 0.5 µg/mL (≈ 0.48 µM); MIC [4, 7]: 1 µg/mL (≈ 0.96 µM)
– | – | – | COC(=O)NNC(=O)N[C@H]1[C@@H]2C[C@@H](O[C@@H]3O[C@H](C)[C@@H](O)[C@H](N)[C@@H]3O)/C=C/C=C/C=C/C=C/C=C/C=C/C=C/[C@H](C)[C@@H](O)[C@@H](C)[C@H](C)OC(=O)C[C@H](O)C[C@H](O)CC[C@@H](O)[C@H](O)C[C@H](O)C[C@](O)(C[C@@H]1O)O2 [I-47] | – | IC50 ([1]; Erythrocyte, 1 h): > 200 µM
– | – | – | CCCC(=O)NNC(=O)N[C@H]1[C@@H]2C[C@@H](O[C@@H]3O[C@H](C)[C@@H](O)[C@H](N)[C@@H]3O)/C=C/C=C/C=C/C=C/C=C/C=C/C=C/[C@H](C)[C@@H](O)[C@@H](C)[C@H](C)OC(=O)C[C@H](O)C[C@H](O)CC[C@@H](O)[C@H](O)C[C@H](O)C[C@](O)(C[C@@H]1O)O2 [I-209] | > 200 | –
– | – | – | C[C@@H]1[C@H](O)[C@@H](C)/C=C/C=C/C=C/C=C/C=C/C=C/C=C/[C@H](O[C@@H]2O[C@H](C)[C@@H](O)[C@H](N)[C@@H]2O)C[C@@H]2O[C@](O)(C[C@@H](O)C[C@@H](O)[C@H](O)CC[C@@H](O)C[C@@H](O)CC(=O)O[C@H]1C)C[C@H](O)[C@H]2NC(=O)NNC(=O)c1ncccc1N [I-197] | > 200 | –
– | – | – | CNC(=O)NNC(=O)N[C@H]1[C@@H]2C[C@@H](O[C@@H]3O[C@H](C)[C@@H](O)[C@H](N)[C@@H]3O)/C=C/C=C/C=C/C=C/C=C/C=C/C=C/[C@H](C)[C@@H](O)[C@@H](C)[C@H](C)OC(=O)C[C@H](O)C[C@H](O)CC[C@@H](O)[C@H](O)C[C@H](O)C[C@](O)(C[C@@H]1O)O2 [I-228] | > 200 | –
0.5 (≈ 0.474 µM) | 0.5 (≈ 0.474 µM) | 1 (≈ 0.948 µM) | C[C@@H]1[C@H](O)[C@@H](C)/C=C/C=C/C=C/C=C/C=C/C=C/C=C/[C@H](O[C@@H]2O[C@H](C)[C@@H](O)[C@H](N)[C@@H]2O)C[C@@H]2O[C@](O)(C[C@@H](O)C[C@@H](O)[C@H](O)CC[C@@H](O)C[C@@H](O)CC(=O)O[C@H]1C)C[C@H](O)[C@H]2NC(=O)NNC(=O)C(CO)CO [I-240] | > 200 | –
– | – | – | C[C@@H]1[C@H](O)[C@@H](C)/C=C/C=C/C=C/C=C/C=C/C=C/C=C/[C@H](O[C@@H]2O[C@H](C)[C@@H](O)[C@H](N)[C@@H]2O)C[C@@H]2O[C@](O)(C[C@@H](O)C[C@@H](O)[C@H](O)CC[C@@H](O)C[C@@H](O)CC(=O)O[C@H]1C)C[C@H](O)[C@H]2NC(=O)NNC(=O)C1(C(N)=O)CC1 [I-256] | > 200 | –
– | – | – | C[C@@H]1[C@H](O)[C@@H](C)/C=C/C=C/C=C/C=C/C=C/C=C/C=C/[C@H](O[C@@H]2O[C@H](C)[C@@H](O)[C@H](N)[C@@H]2O)C[C@@H]2O[C@](O)(C[C@@H](O)C[C@@H](O)[C@H](O)CC[C@@H](O)C[C@@H](O)CC(=O)O[C@H]1C)C[C@H](O)[C@H]2NC(=O)NNC(=O)[C@H](O)C(C)(C)CO [I-245] | > 200 | –
– | – | – | C[C@@H]1[C@H](O)[C@@H](C)/C=C/C=C/C=C/C=C/C=C/C=C/C=C/[C@H](O[C@@H]2O[C@H](C)[C@@H](O)[C@H](N)[C@@H]2O)C[C@@H]2O[C@](O)(C[C@@H](O)C[C@@H](O)[C@H](O)CC[C@@H](O)C[C@@H](O)CC(=O)O[C@H]1C)C[C@H](O)[C@H]2NC(=O)NNC(=O)C1(O)CC1 [I-257] | > 200 | –
